The structures appear in SMILES notation.

The target in the assay is T1, NLRP3 inflammasome (Homo sapiens, UniProt Q96P20).
T1 construct: host or cells: THP1-Null cells (PMA-differentiated, LPS-primed, nigericin-stimulated)
T1 sequence (Q96P20 whole entry): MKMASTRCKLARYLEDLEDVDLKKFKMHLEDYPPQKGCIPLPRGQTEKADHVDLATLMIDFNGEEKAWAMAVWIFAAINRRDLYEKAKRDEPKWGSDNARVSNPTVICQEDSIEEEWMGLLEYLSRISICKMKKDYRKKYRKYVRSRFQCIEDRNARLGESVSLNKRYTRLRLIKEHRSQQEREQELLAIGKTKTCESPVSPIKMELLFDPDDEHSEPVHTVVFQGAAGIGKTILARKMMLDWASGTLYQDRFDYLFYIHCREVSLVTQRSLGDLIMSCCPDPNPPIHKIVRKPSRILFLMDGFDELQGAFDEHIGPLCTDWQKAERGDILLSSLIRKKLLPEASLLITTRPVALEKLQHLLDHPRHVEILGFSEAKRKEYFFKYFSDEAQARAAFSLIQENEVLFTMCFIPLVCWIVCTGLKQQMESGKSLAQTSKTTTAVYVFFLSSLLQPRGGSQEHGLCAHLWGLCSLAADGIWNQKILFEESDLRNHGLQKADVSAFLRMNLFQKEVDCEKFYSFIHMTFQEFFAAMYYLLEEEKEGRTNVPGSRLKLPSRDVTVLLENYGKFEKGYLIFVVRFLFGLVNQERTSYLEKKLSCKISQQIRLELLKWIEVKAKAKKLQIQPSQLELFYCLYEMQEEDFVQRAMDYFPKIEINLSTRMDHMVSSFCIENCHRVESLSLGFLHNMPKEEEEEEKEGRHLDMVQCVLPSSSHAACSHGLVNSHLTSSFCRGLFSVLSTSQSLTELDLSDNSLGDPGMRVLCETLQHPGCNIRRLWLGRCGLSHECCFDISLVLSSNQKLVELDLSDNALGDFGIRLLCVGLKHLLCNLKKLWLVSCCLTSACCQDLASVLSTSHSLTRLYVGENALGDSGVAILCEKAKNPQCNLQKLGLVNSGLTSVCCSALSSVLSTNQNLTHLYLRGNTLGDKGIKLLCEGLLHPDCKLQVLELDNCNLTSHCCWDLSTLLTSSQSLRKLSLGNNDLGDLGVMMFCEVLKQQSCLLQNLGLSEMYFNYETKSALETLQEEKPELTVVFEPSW
Kind of assay: Evaluation of NLRP3 inflammasome inhibitory activity (inhibition of IL-1β production in THP1-Null cells). The assay is classed as cell-based. The note with it: 0.5 µmol/L PMA overnight, 1 µg/mL Lipopolysaccharides 3 hours, Nigericin 7.5 µmol/L 1.5 hours, AlphaLISA Human IL-1β. As for the experimental part: The NLRP3 inflammasome inhibitory activity of test compounds were evaluated on the basis of the inhibitory activity of the IL-1β production in THP1-Null cells (Product Number: thp-null, InvivoGen). Cells were maintained for culture in RPMI-1640 media containing 10% (v/v) fetal bovine serum, 25 mmol/L HEPES, 100 U/mL penicillin, 100 µg/mL streptomycin, 100 µg/mL normocin, and 200 µg/mL hygromycin B (set at 37°C, 5% CO2/95% air) .
Cells were suspended with media for assay containing 0.5 µmol/L PMA (RPMI-1640 media containing 10% (v/v) fetal bovine serum, 100 U/mL penicillin, and 100 µg/mL streptomycin), and the suspended cells were seeded on Corning (registered trademark) 384-well Flat Clear Bottom Black Polystyrene TC-treated Microplates (25,000 cells/25 µL/well), followed by incubation (set at 37°C, 5% CO2/95% air) overnight. The supernatant of the culture was removed, and thereto was added media for assay (25 µL/well) containing 1 µg/mL Lipopolysaccharides (Product Number: L2654, Sigma-Aldrich (registered trademark)). Then, the culture was further incubated for 3 hours (set at 37°C, 5% CO2/95% air) . The supernatant of the culture was removed. Then, a vehicle solution prepared from Opti-MEM (trademark) medium (Product Number: 31985-070, Invitrogen) was added to blank-setting wells and control-setting wells (20 µL/well), followed by incubation for 15 minutes (set at 37°C, 5% CO2/95% air). A solution containing a test compound (20 µL/well) was added to test compound-setting wells. Further, Opti-MEM (trademark) medium containing Nigericin (Product Number: N7143, Sigma-Aldrich (registered trademark)) was added to the control-setting wells and test compound-setting wells (5 µL/well), followed by incubation for 1.5 hours (set at 37°C, 5% CO2/95% air). The final concentration of Nigericin was adjusted to be 7.5 µmol/L. 5 µL/well of Opti-MEM (trademark) medium was added to the blank-setting wells. The supernatant of the culture was cryonically stored (set at -20°C) until measurement of IL-1β.
The amount of IL-1β in the culture supernatant was quantitated with AlphaLISA (registered trademark) Human IL-1β Detection Kit (Product Number: AL220C, Perkin Elmer). Fluorescence intensity was measured with a microplate reader EnSpier (Model number: 2300-00J, Perkin Elmer) or EnSight (Model number: HH34000000, Perkin Elmer) according to procedure manuals attached thereto. Inhibition rates of the test compound-setting wells were calculated on the basis of 100% for the blank-setting wells and 0% for the control-setting wells. IC50 values (i.e., 50% inhibitory concentrations) of the test compounds were calculated by logistic regression analysis.
`Cc1cc(C2CC2)cc(C)c1-n1cc2c(=O)[nH]c(OCCCS(C)(=O)=O)nc2n1` [Example 38] had an IC50 of 8 nM.

`COc1nc2nn(-c3c(C)cc(Br)cc3C#N)cc2c(=O)[nH]1` [Example 101] gave an IC50 of 2400 nM.

Turning to `COc1nc2nn(-c3c(C)cc(OC)c(Br)c3C)cc2c(=O)[nH]1` [Example 100], the IC50 was determined as 690 nM. This IC50 lies about 3.5-fold lower than the previous one.

As for `Cc1cc(C2CC2)cc(C)c1-n1cc2c(=O)[nH]c(OCC(F)(F)CO)nc2n1` [Example 106], the IC50 was found to be 29 nM.

In turn, `COc1nc2nn(-c3ccc(C4CC4)cc3C(F)F)cc2c(=O)[nH]1` [Example 60] gave an IC50 of 16 nM.

In turn, `Cc1cc(Br)cc(C)c1-n1cc2c(=O)[nH]c(OCCCO)nc2n1` [Example 99] showed an IC50 of 12 nM.

As for `CCOc1nc2nn(-c3c(C)cc(OC)cc3C)cc2c(=O)[nH]1` [Example 51], half-maximal inhibition (IC50) was put at 27 nM.

On to `CCOc1nc2nn(-c3ccc(OC)cc3Br)cc2c(=O)[nH]1` [Example 49], for which the IC50 stood at 73 nM.

Compound `Cc1cc(Br)cc(C)c1-n1cc2c(=O)[nH]c(OCCCS(=O)(=O)C(C)(C)C)nc2n1` [Example 64] had an IC50 of 7 nM.

On to `COc1nc2nn(-c3ccc(Br)cc3C3CC3)cc2c(=O)[nH]1` [Example 47], for which 53 nM corresponded to half-maximal inhibition (IC50). Against the preceding compound, the IC50 is about 7.6-fold higher.

As for `Cc1cc(Br)cc(C)c1-n1cc2c(=O)[nH]c(OC[C@@H]3CCOC3)nc2n1` [Example 112], the IC50 came out at 38 nM.

`COc1nc2nn(-c3c(C)cc(OC(F)F)cc3Cl)cc2c(=O)[nH]1` [Example 78] came in with an IC50 of 40 nM.

As to `COc1nc2nn(-c3c(C)cc(C4CC4)cc3F)cc2c(=O)[nH]1` [Example 28], the IC50 stood at 15 nM. Compared with the last compound, the IC50 is about 2.7-fold lower.

For `Cc1cc(Br)cc(C)c1-n1cc2c(=O)[nH]c(OCCCS(C)(=O)=O)nc2n1` [Example 35], half-maximal inhibition (IC50) required 7 nM. Against the preceding compound, the IC50 is about 2.1-fold lower.

`COc1nc2nn(-c3ccc(Br)cc3C(C)C)cc2c(=O)[nH]1` [Example 81] showed an IC50 of 58 nM.

The compound `Cc1cc(Br)cc(C)c1-n1cc2c(=O)[nH]c(OCC(F)F)nc2n1` [Example 67] yielded a half-maximal inhibitory concentration (IC50) of 43 nM. This IC50 and that of the compound before are within 1.5-fold of each other.

`Cc1cc(Br)cc(C)c1-n1cc2c(=O)[nH]c(OC[C@H]3CCOC3)nc2n1` [Example 111] showed an IC50 of 50 nM.

As to `CCc1cc(Br)cc(C)c1-n1cc2c(=O)[nH]c(OC)nc2n1` [Example 85], the IC50 worked out at 12 nM.

`COc1nc2nn(-c3c(C)cc(C4CC4)cc3C)c(C#N)c2c(=O)[nH]1` [Example 119] yielded an IC50 of 23 nM.

Compound `Cc1cc(C2CC2)cc(C)c1-n1cc2c(=O)[nH]c(OCCCS(=O)(=O)C(C)C)nc2n1` [Example 62] registered an IC50 of 4 nM.

For `COc1cc(C)c(-n2nc3nc(OC)[nH]c(=O)c3c2C2CC2)c(C)c1` [Example 95], the half-inhibitory concentration (IC50) amounted to 68 nM.

As to `COc1nc2nn(-c3c(C)cc(Br)cc3C)cc2c(=O)[nH]1` [Example 12, 2-(4-bromo-2,6-dimethylphenyl)-6-methoxy-2,5-dihydro-4H-pyrazolo[3,4-d]pyrimidin-4-one], half-maximal inhibition (IC50) required 9 nM.

With `COc1nc2nn(-c3ccc(Br)cc3C(F)(F)F)cc2c(=O)[nH]1` [Example 43], the IC50 is 38 nM.

In the case of `Cc1cc(Br)cc(C)c1-n1cc2c(=O)[nH]c(OC3COC3)nc2n1` [Example 121], half-maximal inhibition (IC50) was put at 2400 nM. Compared with the last compound, the IC50 is about 63-fold higher.

As to `COc1nc2nn(-c3c(C)cc(Br)c(OC)c3C)cc2c(=O)[nH]1` [Example 96], the midpoint of inhibition, the IC50, lay at 430 nM.

`COc1nc2nn(-c3c(C)cc(C4CC4)cc3C)c(I)c2c(=O)[nH]1` [Example 79] gave an IC50 of 8 nM.

In the case of `CCOc1nc2nn(-c3c(C)cc(Br)cc3C)cc2c(=O)[nH]1` [Example 34], half-maximal inhibition (IC50) was put at 12 nM. Against the preceding compound, the IC50 is about 1.5-fold higher.

The compound `COCc1cc(C2CC2)cc(C)c1-n1cc2c(=O)[nH]c(OC)nc2n1` [Example 92] yielded an IC50 of 21 nM.

Take `Cc1cc(Br)cc(C)c1-n1cc2c(=O)[nH]c(OCC(C)(C)O)nc2n1` [Example 21]: the IC50 was 74 nM.

Consider `COc1nc2nn(-c3c(C)cc(C(C)(C)F)cc3C)cc2c(=O)[nH]1` [Example 118], for which the IC50 was 73 nM.

Turning to `CCOc1nc2nn(-c3c(C)cc(C4CC4)cc3C)cc2c(=O)[nH]1` [Example 50], the midpoint of inhibition, the IC50, lay at 10 nM.

Compound `COc1nc2nn(-c3c(C)cc(OC(F)F)cc3F)cc2c(=O)[nH]1` [Example 66] registered an IC50 of 78 nM.

`COc1nc2nn(-c3c(C)cc(Cl)cc3C)cc2c(=O)[nH]1` [Example 57] came in with an IC50 of 58 nM.

The compound `COc1nc2nn(-c3c(C)cc(C(F)F)cc3C)cc2c(=O)[nH]1` [Example 65] showed a half-maximal inhibitory concentration (IC50) of 140 nM.

`Cc1c(-n2cc3c(=O)[nH]c(OCC4CC4)nc3n2)c(C(F)(F)F)nn1C(C)C` [Example 102] showed an IC50 of 670 nM. This IC50 is about 4.8-fold higher than that of the compound before.

`COc1nc2nn(-c3c(C)cc(C4CC4)cc3OC)cc2c(=O)[nH]1` [Example 29] had an IC50 of 54 nM.

With `CCOc1cc(C)c(-n2cc3c(=O)[nH]c(OC)nc3n2)c(C)c1` [Example 94], the midpoint of inhibition, the IC50, lay at 200 nM.

`Cc1cc(Br)cc(C)c1-n1cc2c(=O)[nH]c(OC3CCOCC3)nc2n1` [Example 16]: the IC50 was determined as 25 nM.

`COc1nc2nn(-c3ccc(Br)cc3C(F)F)cc2c(=O)[nH]1` [Example 59] gave an IC50 of 55 nM.

`COc1cc(C)c(-n2cc3c(=O)[nH]c(OC)nc3n2)c(C)c1` [Example 13, 6-methoxy-2-(4-methoxy-2,6-dimethylphenyl)-2,5-dihydro-4H-pyrazolo[3,4-d]pyrimidin-4-one] yielded an IC50 of 22 nM.

Compound `COc1nc2nn(-c3c(C)cc(C4CC4)cc3C)cc2c(=O)[nH]1` [Example 14] gave an IC50 of 8 nM.

In turn, `COc1nc2nn(-c3c(C)cc(C(C)(F)F)cc3C)cc2c(=O)[nH]1` [Example 71] displayed a 50% inhibitory concentration (IC50) of 42 nM.

Compound `Cc1cc(C)c(-n2cc3c(=O)[nH]c(OCC4CC4)nc3n2)c(C)c1` [Example 3] registered a concentration for half-maximal inhibition (IC50) of 9 nM.

With `COc1nc2nn(-c3c(C(F)(F)F)nn(C(C)C)c3C)cc2c(=O)[nH]1` [Example 98], the IC50 worked out at 500 nM.

On to `Cc1cc(Br)cc(C)c1-n1cc2c(=O)[nH]c(OC(C)C)nc2n1` [Example 33], for which the IC50 was 24 nM.

`Cc1cc(C)c(-n2cc3c(=O)[nH]c(OC(C)C)nc3n2)c(C)c1` [Example 5] registered an IC50 of 34 nM.

Take `Cc1cc(Br)cc(C)c1-n1cc2c(=O)[nH]c(OCCN(C)C)nc2n1` [Example 25]: inhibition was half-maximal at 53 nM (IC50).

Take `Cc1cc(Br)cc(C)c1-n1cc2c(=O)[nH]c(OCCC(C)(C)O)nc2n1` [Example 20]: half-maximal inhibition (IC50) required 22 nM.

`COCCOc1nc2nn(-c3c(C)cc(Br)cc3C)cc2c(=O)[nH]1` [Example 107] returned an IC50 of 23 nM.

`Cc1cc(Br)cc(C)c1-n1cc2c(=O)[nH]c(O[C@@H]3CCOC3)nc2n1` [Example 36]: 19 nM corresponded to half-maximal inhibition (IC50). The IC50 values of the last two compounds are within 1.5-fold of each other.

In the case of `COc1nc2nn(-c3c(C)cc(OC(F)(F)F)cc3C)cc2c(=O)[nH]1` [Example 61], the IC50 was 69 nM. This IC50 is about 3.6-fold higher than that of the compound before.

`COCCOc1nc2nn(-c3c(C)cc(C)cc3C)cc2c(=O)[nH]1` [Example 4]: it took 74 nM to reach half-maximal inhibition (IC50).

The compound `Cc1cc(Br)cc(C)c1-n1cc2c(=O)[nH]c(OCCCCO)nc2n1` [Example 113] came in with an IC50 of 14 nM.

For `COc1nc2nn(-c3ccc(Br)cc3C(O)C3CC3)cc2c(=O)[nH]1` (racemic) [Example 53], it took 160 nM to reach half-maximal inhibition (IC50).

`CCc1c2c(=O)[nH]c(OC)nc2nn1-c1c(C)cc(OC)cc1C` [Example 91] came in with an IC50 of 140 nM. The IC50 values of the last two compounds are within 1.5-fold of each other.

Consider `COCc1cc(C2CC2)ccc1-n1cc2c(=O)[nH]c(OC)nc2n1` [Example 42], for which inhibition was half-maximal at 63 nM (IC50).

Take `Cc1cc(C2CC2)cc(C)c1-n1cc2c(=O)[nH]c(OCCCO)nc2n1` [Example 116]: inhibition was half-maximal at 11 nM (IC50).

`COc1nc2nn(-c3c(F)cc(F)cc3Cl)cc2c(=O)[nH]1` [Example 75] gave an IC50 of 1300 nM.

`COc1nc2nn(-c3cc(C)ccc3C(F)(F)F)cc2c(=O)[nH]1` [Example 97] had an IC50 of 1200 nM. The IC50 values of the last two compounds are within 1.5-fold of each other.

For `COc1nc2nn(-c3c(C)cc(Br)cc3C)cc2c(=O)n1C` [Example 23], the IC50 is 680 nM.

In turn, `COc1nc2nn(-c3cc(C)c(Cl)cc3C)cc2c(=O)[nH]1` [Example 26] showed an IC50 of 1200 nM.

The compound `Cc1cc(C2CC2)cc(C)c1-n1cc2c(=O)[nH]c(OCC(F)F)nc2n1` [Example 68] showed an IC50 of 25 nM.

In turn, `COCc1cc(OC(F)F)cc(C)c1-n1cc2c(=O)[nH]c(OC)nc2n1` [Example 110] yielded an IC50 of 210 nM.

The values are drawn from patent EP4671246A1, “6-ALKOXYPYRAZOLOPYRIMIDINE COMPOUND AND PHARMACEUTICAL USE THEREOF” (Japan Tobacco Inc., priority 2023, dated 2024).
